The text below walks through data of US4877790A, “Quinazoline derivative, processes for its production, and cerebral dysfunction remedying agent comprising it as active ingredient” (Kanebo Limited, priority 1987, dated 1989).

In assay [1] the test system is carbon dioxide-induced amnesia, male mice of the ddY strain. Description: Anti-CO2-induced amnesia activity (one-trial passive avoidance response). Format: in vivo. To be noted: oral, Table 1. The protocol:
Anti-CO2 -induced amnesia activity (the activity of remedying hypoxia-induced deficits in learning and memory):
Male mice of the ddY strain (body weight 20-30 g, 30 per group) were used. Anti-CO2 -induced amnesia activity was determined by using one-trial passive avoidance response as an index.
The experimental device consisted of two compartments, one illuminated and the other dark, with a guillotine door in the boundary of the two compartments permitting free passage of the mice through it.
In an acquisition trial, a mouse was placed in the illuminated compartment and allowed to enter the dark one. As soon as the mouse entered the dark compartment, the door was shut, and an electrical shock (0.5 mA, 0.2 sec.) was applied through the grid floor. Thus, the mouse was caused to learn that it receives an electric shock upon entering the dark room. In a retrieval trial, the mouse was again placed in the illuminated compartment 24 hours after the acquisition trial, and the time elapsed until it entered the dark compartment (response latency) was measured to an extent of 300 seconds at the longest. (One-trial passive avoidance response). […]

Assay [2] deals with complete ischemia by decapitation, male mice of the ddY strain. Put plainly: Anti-hypoxic activity: brain protection against complete ischemia by decapitation (gasping persistent time). The conditions noted are these: oral, Table 2. It counts as in vivo. The protocol:
(1) Brain protection against complete ischemia by decapitation:
Male mice of the ddY strain (body weight 20-25 g, 5 per group) were orally given the compound of the invention (dihydrochloride) dissolved in 1% gum arabic solution. One hour later, the mice were decapitated, and the time elapsed until a gasping-like mouth opening movement appearing after decapitation ceased (gasping persistent time) was measured, and compared with that obtained with the control group (the group to which 1% gum arabic solution was administered.

The subject of assay [3] is normobaric hypoxia, male mice of the ddY strain. Put plainly: Anti-hypoxic activity: brain protection against normobaric hypoxia (survival time). It counts as in vivo. To be noted: oral, Table 3. The method, then:
(2) Brain protection against normobaric hydpoxia
Male mice of the ddY strain (body weight 20-25g, 5 per group) were orally administered with the compound of the invention (dihydrochloride) dissolved in a 1% gum arabic solution. One hour after the adminstration, the mouse was put in a transparent plastic container (capacity 27 liters) through which 100% nitrogen was passed at a rate of 80 liters/min. The time elasped until the animal died (the survival time) was measured, and compared with that obtained with the control group (the group to which 1% gum arabic solution was administered).

The subject of assay [4] is formation of lipid peroxide by autoxidation (brain homogenate). Put plainly: Lipid peroxide formation inhibiting activity (antioxidant activity), MDA in brain homogenate. It counts as biochemical, rats. To be noted: for Antioxidant activity (percent inhibition of autoxidation): 37° C. 30 minutes, n = 4, mean ± standard error. The protocol:
Lipid peroxide formation inhibiting activity (antioxidant activity):
The effect of the test compound on the formation of lipid peroxide by autoxidation was determined by the amount of malondialdehyde (MDA) formed.
Rats were decapitated, and the cerebrum was taken out and homogenized with 4 ml, per gram of the cerebrum, of 50 mM phosphate saline-buffer (pH 7.4) and centrifuged (2800 rpm, 10 minutes). The supernatant was taken into a 10 ml test tube to obtain a brain homogenate. It was frozen at -70° C. and stored.
The brain homogenate was defrozen, and immediately then, diluted to 10-fold with the aforesaid phosphate saline-buffer. A 2 ml portion of the dilution was taken into a 10 ml test tube cooled with ice, and used to measure its antioxidant activity. Twenty microliters of an aqueous solution of the compound of this invention (dihydrochloride) was added. The amount of MDA immediately after the addition was measured as shown below (MDA0 time). The mixture was incubated at 37° C. for 30 minutes. […] After cooling with ice, the cooled mixture was centrifuged (2800 rpm, 10 minutes). To 1 ml of the supernatant, 0.5 ml of 0.5 % thiobarbituric acid solution dissolved in 50% acetic acid solution was added, and the mixture was heated at 100° C. for 15 minutes. After cooling with ice, the absorbance of the solution at 532 nm was measured, and the amount of MDA formed was determined (MDA test).
As a control, the amount of MDA (MDAcont) was determined as above.
The antioxidant activity of the compound of the invention was expressed in terms of percent inhibition of autoxidation on the brain homogenate. The calculation was based on the following equation. [formula]

Assay [5] concerns deficit of memory induced by scopolamine hydrobromide, male mice of the ddY strain. Description: Anti-scopolamine-induced amnesia activity (one-trial passive avoidance response). It counts as in vivo. The conditions noted are these: i.p. and p.o., Table 5. The protocol: Anti-scopolamine-induced amnesia activity:
Male mice of the ddY strain (body weight 20-25g, 20 per group) were used, and the activity of the test compound on deficit of memory induced by scopolamine hydrobromide (a muscarinic acetylcholine receptor antagonist) was examined using one-trial passive avoidance response as an index.
Using the same experimental device as in Test Example 1, the same acquisition trial and retrieval trial as in Test Example 1 were carried out (one-trial passive avoidance response.)
Scopolamine hydrobromide (1 mg/kg) was intraperitoneally (i.p.) administered to the animals 20 minutes before the acquisition trial. The compound of the invention (dihydrochloride) was dissolved in 1 % gum arabic solution, and intraperitoneally adminstered immediately after the acquisition trial, and orally (p.o.) administered 60 minutes before the acquisition trial.
A 1% solution of gum arabic was administered to the control group.

The structures appear in SMILES notation. Structures can show the parent of a compound that is named as a salt.

Consider `C=CCN1CCN(c2nc(OCCCCC)c3ccccc3n2)CC1` [Compound of the invention (2HCl), 2-(4-allyl-l-piperazinyl)-4-pentyloxyquinazoline dihydrochloride], for which the “anti-carbon dioxide induced amnesia activity (in words)” value in assay [1] is listed as “showed a significant anti-carbon dioxide induced amnesia activity”. The “activity of prolonging the gasping persistent time (in words)” value in assay [2] was “showed a significant activity of prolonging the gasping persistent time”. Besides, in assay [3], the “activity of prolonging the survival time (in words)” value was “showed a significant activity of prolonging the survival time”. For the same compound, the “Antioxidant activity (percent inhibition of autoxidation)” value turned out to be 6.4 ± 7.7% in assay [4] (10 μM), 27.1 ± 6.8% in assay [4] (30 μM), 77.9 ± 3.1% in assay [4] (100 μM) and 93.4 ± 2.2% in assay [4] (300 μM). Further, the “activity of inhibiting formation of lipid peroxide (antioxidant activity) (in words)” value in assay [4] (Table 4) is reported as “showed the activity of inhibiting formation of lipid peroxide”. Also, in assay [5], the “anti-scopolamine-induced amnesia activity (in words)” value was “showed a significant anti-scopolamine-induced amnesia activity”.
